Data published in patent US4548927A, “Method and agents for raising animal tolerance to oxidant stress-inducing antibiotics” (priority 1983, dated 1985).

How the values were obtained:
[1] = tested on: cardiac submitochondrial particles; conditions: cited from earlier work
L1210 leukemia cells = test: Effect of methylene blue on anti-neoplastic activity of doxorubicin (Example IV); assay type: in vivo, CD2 F1 female mice
Protocol: A strain of leukemia identified as L1210 was obtained from Arthur Bogden of the E. G. Mason Research Institute Animal and Human Tumor Bank, Worcester, Massachusetts. The tumor was kept in passage in DBA female mice. The tumor used for the below described experiments was between its tenth and twentieth in vivo passage. […] The tumor grows in ascites, which is initially clear and proceeds, within the 24 to 36 hours prior to death, to become hemorrhagic.
Accordingly, it was determined to assess tne anti-tumor efficacy of doxorubicin administered with and without methylene blue. For these studies, 120, 12 to 14 week old female CD2 F1 mice were each given 70,000 live L1210 leukemia cells 4 hours after the lights were turned on in the cages. The mice were then randomly assigned to one of seven treatment groups.

doxorubicin lethality [2] = test: Effects of methylene blue on doxorubicin toxicity, survival, Study No. 2 (Example II)
Protocol: (§1) Mice were obtained from Laboratory Supply Company, Inc., Indianapolis, Indiana. […] The light was maintained between 6:00 in the morning and 6:00 at night, and food and water were freely available. The rooms the mice were maintained in were sound insulated and kept at a constant relative humidity with a temperature ranging between 23° and 25° C. All animals were kept undisturbed except for a weekly cage cleaning, for 21 to 28 days after receipt from the animal supplier and prior to the experimentation. Four mice of the same sex were kept in each cage because of the well-known effects of isolation upon various biologic parameters. […] (See, Levi, F., Halberg, F., Haus, E., Sanchez, S., Sothern, R. B., Halberg, E., Hrushesky, W., Brown, H., Scheving, L. E., and Kennedy, B. J., "Synethetic Adrenocorticotropin for Optimizing Murine Circadian Chronotolerance for Adriamycin", CHRONOBIOLOGIA. 7(#2):227-244 (1980)).
(§2) The anthracycline antibiotic doxorubicin (NDC 38242-874-10, obtained from Adria Laboratories, Inc., Columbus, Ohio) was prepared to a concentration of 2 mg/ml in saline immediately prior to administration to the mice. Administration was by injection either intravenously through a transilluminated tail vein or intraperitoneally. The doxorubicin was administered in an amount per body weight of mouse of 18 mg/kg.
T-tests were used when comparing variances between two groups. […]

doxorubicin lethality [3] = test: Effects of methylene blue on anthracycline toxicity, survival, Study No. 1 (Example II)
[4] = as above; conditions: mouse, in vivo, 18 mg/kg
[5] = Doxorubicin lethality, Balb/c mice; set-up: species or system Balb/c female mice; conditions: mouse, in vivo
heart = test: Cardiac evaluation / heart damage score and autopsy, Study No. 1 (Example II); assay type: in vivo, Balb/c female mice
Excerpt: A pathologist examined the heart of each mouse without prior knowledge of whether the animal received doxorubicin or placebo and methylene blue ur placebo. Cages were inspected twice daily for dead animals and autopsies were done immediately. The animals' hearts were washed in normal saline, fixed in formalin and embedded in glycol methacrylate. One-micron sections were inspected by light microscopy. The condition of the hearts was scored as follows: normal-1; slightly damaged-2; moderately damaged-3; severely damaged-4. Five specific categories or criteria were utilized for this evaluation: vacuolization; myofibrillar and nuclear degeneration; necrosis; interstitial edema; and interstitial inflammation. The numerical scores were averaged for each heart to yield an overall tabulation of damage.
In the course of this study, the cages were inspected twice daily for dead animals, and within twelve hours of death an autopsy was performed upon each animal that died. The heart was excised, inspected, washed in normal saline and fixed in 10% formalin. Upon terminatiun of this study, animals which had received no doxorubicin were killed by cervical dislocation and their hearts were handled in accordance with the procedures outlined earlier above.
Nonetheless, this difference in mean value was not statistically significant at the 5% level (f=2.3, p<0.1 and>0.05).

cellular proteins = test: Examination of tissues after doxorubicin administration; conditions: tissues subsequent to doxorubicin administration
Excerpt: The present inventor has likewise reasoned that the reduction of the oxidant stress-inducing antibiotics may be promoted by interaction with either NADH or NADPH, or their reducing proteins. […] It is therefore possible that the oxidation of NADH or NADPH may occur indirectly by the interaction of the antibiotic with these reducing proteins acting as mediators, either in addition to or in place of a direct interaction between the antibiotic and NADH or NADPH alone.

[6] = Doxorubicin lethality, CD2 F1 mice; assay type: in vivo
[7] = tested on: hepatic microsomes and heart sarcosomes; conditions: cited from earlier work
doxorubicin lethality [8] = test: Effect of lesser doses of methylene blue on doxorubicin toxicity, survival (Example III)
Protocol: as §1, §2
T-tests were used when comparing variances between two groups. When the variance of means were compared among several groups, analysis of variance was used. Multivariate mean analysis was used when comparing groups of individuals sharing common characteristics which were anticipated might possibly affect the outcome of the statistical analysis. […] Chi-square analyses were used to compare survival percentages between and among various treatment groups at appropriate truncation points. Gehan-Wilcoxon Life Table Analyses were used to complement multivariate survival analyses in order to properly weight long-term survivors.

[9] = cited from earlier work
microsomal systems = conditions: from NADPH and NADH; cited from earlier work
[10] = tested on: antibiotic-induced damage; conditions: tumor cells and normal host tissues; cited from earlier work
hepatic GSH = test: Effect of methylene blue on hepatic GSH levels (Example I); assay type: in vivo, CD2 F1 female mice; conditions: 25 mg methylene blue iv; 4 h; 33 week old; n=9; saline 15.03±4.33; f=6.03, p<0.03
Protocol: Total glutathione, oxidized and reduced (GSSG and GSH respectively), was determined by a modification of the method of Tietze (Tietze, F., ANAL. BIOCHE., 27:502-522 (1969). GSH was determined by the method of Prins and Loos (Prins, H. K. and Loos, J. A., "In Biochemical Methods in Red Cell Genetics", J. Yunis, ed., Academic Press, New York, (1969)).
Because maintenance of GSH is an NADPH-dependent process, decrements in intracellular NADPH were postulated to lead to a decrease in GSH concentration. […] Hepatic GSH was similarly observed and noted to behave in corresponding fashion.

in vivo = conditions: mouse, 550 mg/kg
[11] = previous studies in mice, dogs and humans; cited from earlier work
[12] = tested on: antibiotic-induced free radical-mediated damage; conditions: humans; cited from earlier work

COc1cccc2c1C(=O)c1c(O)c3c(c(O)c1C2=O)C[C@@](O)(C(=O)CO)C[C@@H]3O[C@H]1C[C@H](N)[C@H](O)[C@H](C)O1 [doxorubicin, 14-hydroxydaunomycin]
superoxide formation [1]: stimulates superoxide formation | survival, doxorubicin and placebo (L1210 leukemia cells; 70,000 L1210 cells, doxorubicin and placebo): 14.4 ± 1.2 days | increased life span (L1210 leukemia cells; single doxorubicin treatment 3 days after tumor implantation, F=124, p<0.001): 160% | mean survival time, without methylene blue (doxorubicin lethality [2]; doxorubicin 18 mg/kg iv plus placebo, truncated at 130 days, n=7): 85 ± 7 days | effect of route of administration of doxorubicin (doxorubicin lethality [3]; doxorubicin 18 mg/kg iv vs ip, two-way analysis of variance): no significant effect of the particular route of administration | mortality at 360 h [4]: > 50% | mortality at 720 h ([5]; 18 mg/kg ip, 30 days, Balb/c female, read-out: mortality within 30 days, intraperitoneal): 100% | mortality ([5]; 18 mg/kg iv, Balb/c): ~100% | visual appearance of hearts (heart; animals receiving doxorubicin): often pale and had a patchy fibrotic appearance | most prominent heart finding (heart; animals which did not receive methylene blue): degeneration of myocytes | pleural fluid, pulmonary consolidation and ascites (heart; autopsy, animals which had received doxorubicin): often present | heart damage score, without methylene blue (heart; doxorubicin 18 mg/kg, no methylene blue, normal score=1.0, f=2.3, p<0.1 and >0.05): 2.8±1.3 | complexation with cellular proteins (cellular proteins): some complexation | survival of CD2 F1 relative to Balb/c mice ([6]; 18 mg/kg iv, compared with Balb/c mice): more than 3 times longer | mortality at 720 h ([6]; mouse, in vivo, 18 mg/kg ip, 30 days, CD2 F1, read-out: mortality within 30 days, intraperitoneal): > 80% | mortality ([6]; mouse, in vivo, 18 mg/kg iv, CD2 F1): ~100% | oxygen consumption [7]: increases oxygen consumption | average survival, doxorubicin intraperitoneally (doxorubicin lethality [8]; doxorubicin 18 mg/kg ip, f=27.4, p<0.001): 6.2 ± 0.8 days | average survival, saline placebo (doxorubicin lethality [8]; doxorubicin 18 mg/kg iv or ip plus saline placebo, f=10.8, p<0.001): 7.2 ± 0.6 days | mortality (doxorubicin lethality [8]; doxorubicin 18 mg/kg iv or ip, with methylene blue or saline): All of the mice succumbed to doxorubicin | average survival, doxorubicin intravenously (doxorubicin lethality [8]; doxorubicin 18 mg/kg iv, f=27.4, p<0.001): 11.2 ± 0.6 days | solubility [9]: soluble in water, methanol and other aqueous alcohols but is practically insoluble in acetone, benzene, chloroform, ethyl ether and petroleum ether | free radical production (microsomal systems): causes the production of free radicals

CC(=O)N[C@@H](CS)C(=O)O [N-acetyl cysteine]
protection from antibiotic-induced damage [10]: mixed results

CN(C)c1ccc2nc3ccc(=[N+](C)C)cc-3sc2c1 [methylene blue, methylthionine chloride]
survival, doxorubicin followed by methylene blue (L1210 leukemia cells; 70,000 L1210 cells, doxorubicin followed by methylene blue 25 mg/kg iv 30 min after, then sc 1.5-48 h): 14.7 ± 0.5 days | mean hepatic GSH levels (hepatic GSH): 9.30±5.50 μMol/g protein | average survival, with methylene blue (doxorubicin lethality [2]; doxorubicin 18 mg/kg iv plus methylene blue 4 x 25 mg/kg (iv, then ip 1, 3, 6 h), 130 days, n=8, t=4.0, p<0.001): 113 ± 0.5 days | survival, methylene blue without doxorubicin (doxorubicin lethality [3]; saline and methylene blue iv, no doxorubicin, study follow-up period): lived throughout the study follow-up period | pleural fluid, pulmonary consolidation and ascites (heart; animals killed after saline and/or methylene blue only): never | visual appearance of hearts (heart; animals not receiving doxorubicin (saline and/or methylene blue)): appeared visually normal | heart damage score, with methylene blue (heart; doxorubicin 18 mg/kg plus methylene blue iv, normal score=1.0, f=2.3, p<0.1 and >0.05 (not significant)): 1.8±0.9 | average survival, with methylene blue (doxorubicin lethality [8]; doxorubicin 18 mg/kg iv or ip plus methylene blue 25 mg/kg iv, f=10.8, p<0.001): 10.3 ± 1 days | mortality (in vivo): 50% | tolerability at 25 mg/kg [11]: well tolerated

Cc1c(C)c2c(c(C)c1O)CCC(C)(CCCC(C)CCCC(C)CCCC(C)C)O2 (stereo not drawn) [Vitamin E, α-tocopherol]
effect on antibiotic-induced damage at tolerable doses [12]: failed to work at tolerable doses in humans
